“Also recorded” adds a separate entry of the source. Ends that are not written are not given here.
What was measured:
microorganisms [1] = experiment: Targeting peptide binding to target microorganisms (Tables 3, 10, 12); conditions: microorganism(s) the targeting peptide binds, preferably 1x PBS
C. difficile = experiment: MIC test / antimicrobial activity, C. difficile; format: cell-based, Clostridium difficile
Method: (§1) The active AMPs, STAMPs and the like can be identified and/or validated using an in vitro screening assay.
(§2) It will be appreciated that other assays as are well known in the art or that will become apparent to those having skill in the art upon review of this disclosure may also be used to identify active AMPs. Such assays include, for example, the assay described in Lehrer et al. (1988) J. Immunol.
(§3) Peptides were evaluated for basic antimicrobial activity by broth microdilution, as described previously (Eckert et al. (2006) Antimicrob Agents Chemother., 50: 3651-3657; Eckert et al. (2006) Antimicrob Agents Chemother., 50: 1480-1488). Briefly, ˜1×10^5 cfu/mL bacteria were diluted in TH (S. mutans), or Mueller-Hinton (MH) broth (all other organisms) and distributed to 96-well plates. Serially-diluted (2-fold) peptides were then added and the plates incubated at 37° C. for 18-24 h. […] All experiments were conducted 10 times.

microorganisms [2] = experiment: Morphology, biofilm and growth disrupting peptides (Table 5); format: cell-based; parameters: key: A: Peptide aggregates; B: Less hyphal formation; Clumps; Diffuse clumps and small polyps; F: Diffuse growth; H: Thin; I: Growth inhibition; Microcolony formation; Rippled; Small polyps; Thick; W: Halo formation on top, microlonies on bottom
Description: In certain embodiments peptides that induce alterations in phenotype or other biological activities can also be used as antimicrobial effector moieties.

microorganisms [3] = experiment: Peptide activities: targeting/binding, antimicrobial, growth or phenotype altering (Tables 7, 8); format: cell-based; conditions: peptides having multiple activities
MRSA = experiment: MIC test / antimicrobial activity, MRSA; format: cell-based, Methicillin-resistant Staphylococcus aureus
Method: as §1, §2, §3

P. aeruginosa = experiment: MIC test (broth microdilution) / antimicrobial activity, P. aeruginosa; format: cell-based, Pseudomonas aeruginosa; conditions: P. aeruginosa
Method: as §1, §2, §3

S. mutans = experiment: MIC test (broth microdilution) / antimicrobial activity, S. mutans; format: cell-based, Streptococcus mutans
Method: as §1, §2, §3

S. epidermidis = experiment: MIC test (broth microdilution) / antimicrobial activity, S. epidermidis; format: cell-based, Staphylococcus epidermidis; conditions: S. epidermidis
Method: as §1, §2, §3

A. niger = experiment: MIC test / antimicrobial activity, A. niger; format: cell-based, Aspergillus niger
Method: as §1, §2, §3

S. pneumoniae = experiment: MIC test / antimicrobial activity, S. pneumoniae; format: cell-based, Streptococcus pneumoniae
Method: as §1, §2, §3

A. baumannii = experiment: MIC test / antimicrobial activity, A. baumannii; format: cell-based, Acinetobacter baumannii
Method: as §1, §2, §3

C. albicans = experiment: MIC test / antimicrobial activity, C. albicans; format: cell-based, Candida albicans
Method: as §1, §2, §3

T. rubrum = experiment: MIC test / antimicrobial activity, T. rubrum; format: cell-based, Trichophyton rubrum
Method: as §1, §2, §3

B. subtilis = experiment: MIC test / antimicrobial activity, B. subtilis; format: cell-based, Bacillus subtilis; conditions: B. subtilis
Method: as §1, §2, §3

[4] = binding in aqueous buffers varied with peptide solubility

## FELVDWLETNLGKILKSKSA-NH2 [PF-522]
Microorganisms [1]; [4]
  Target(s): S. epidermidis; also recorded: E. coli; also recorded: P. aeruginosa; also recorded: S. pneumoniae; also recorded: E. faecalis
C. difficile
  Organism MIC (μM): C. difficile, 25 μM
Microorganisms [2]; S. pneumoniae
  Organism, effect: S. pneumoniae (H)
Microorganisms [3]
  Activities: G B M

## FIRKFLQKLHL [K-16]
MRSA
  Organism MIC (μM): MRSA, 25 μM
P. aeruginosa
  Organism MIC (μM): P. aeruginosa, 12.5 μM
S. mutans
  Organism MIC (μM): S. mutans, 8 μM

## KFQGEFTNIGQSYIVSASHMSTSLNTGK [PF-583]
MRSA
  Organism MIC (μM): MRSA, 50 μM
Microorganisms [2]; MRSA
  Organism, effect: MRSA (I)
Microorganisms [2]; S. epidermidis
  Organism, effect: S. epidermidis (I)
Microorganisms [2]; S. mutans
  Organism, effect: S. mutans (F)
Microorganisms [2]; S. pneumoniae
  Organism, effect: S. pneumoniae (D)
S. epidermidis
  Organism MIC (μM): S. epidermidis, 50 μM
Microorganisms [3]
  Activities: G B M

## KFSDQIDKGQDALKDKLGDL [PF-525]
A. niger
  Organism MIC (μM): A. niger, 50 μM
Microorganisms [2]; S. pneumoniae
  Organism, effect: S. pneumoniae (H)
S. pneumoniae
  Organism MIC (μM): S. pneumoniae, 50 μM
Microorganisms [3]
  Activities: G M

## KNKKQTDILEKVKEILDKKKKTKSVGQKLY [PF-538]
C. difficile
  Organism MIC (μM): C. difficile, 25 μM
Microorganisms [2]; S. pneumoniae
  Organism, effect: S. pneumoniae (H)
Microorganisms [3]
  Activities: G M
A. baumannii
  Organism MIC (μM): A. baumannii, 25 μM

## LSEMERRRLRKRA-NH2 [PF-529]
Microorganisms [1]; [4]
  Target(s): S. epidermidis and E. coli and C. albicans and MRSA and S. pneumoniae and E. faecalis and C. jeikeium
A. niger
  Organism MIC (μM): A. niger, 50 μM
Microorganisms [2]; S. pneumoniae
  Organism, effect: S. pneumoniae (H)
S. pneumoniae
  Organism MIC (μM): S. pneumoniae, 50 μM
Microorganisms [3]
  Activities: G B M

## LSLATFAKIFMTRSNWSLKRFNRL [PF-278]
C. albicans
  Organism MIC (μM): C. albicans, 50 μM
Microorganisms [1]; [4]
  Target(s): M. luteus; also recorded: A. baumannii
Microorganisms [2]; C. albicans
  Organism, effect: C. albicans: C. albicans (B)
Microorganisms [2]
  Organism, effect: M. luteus: M. luteus (R)
Microorganisms [2]; S. epidermidis
  Organism, effect: S. epidermidis: S. epidermidis (I)
S. epidermidis
  Organism MIC (μM): S. epidermidis, 50 μM
T. rubrum
  Organism MIC (μM): T. rubrum, 50 μM
Microorganisms [3]
  Activities: G B M

## MGIIAGIIKFIKGLIEKFTGK [PF-006]
MRSA
  Organism MIC (μM): MRSA, 50 μM
Microorganisms [1]; binding in aqueous buffers that varied with peptide solubility
  Target(s): S. epidermidis and M. luteus and E. coli and P. aeruginosa and MRSA and E. faecalis and C. jeikeium and C. jejuni
Microorganisms [2]; B. subtilis
  Organism, effect: B. subtilis: B. subtilis (I)
Microorganisms [2]
  Organism, effect: C. jejuni: C. jejuni (D)
  Organism, effect: M. luteus: M. luteus (A)
Microorganisms [2]; MRSA
  Organism, effect: MRSA: MRSA (I)
Microorganisms [2]; S. epidermidis
  Organism, effect: S. epidermidis: S. epidermidis (D)
Microorganisms [2]; S. pneumoniae
  Organism, effect: S. pneumoniae: S. pneumoniae (R)
B. subtilis
  Organism MIC (μM): B. subtilis, 25 μM
Microorganisms [3]
  Activities: G B M
A. baumannii
  Organism MIC (μM): A. baumannii, 50 μM

## MIRIRSPTKKKLNRNSISDWKSNTSGRFFY [PF-283]
Microorganisms [1]; [4]
  Target(s): B. subtilis; also recorded: B. fragilis; also recorded: C. difficile
Microorganisms [2]; B. subtilis
  Organism, effect: B. subtilis: B. subtilis (H)
Microorganisms [2]; S. epidermidis
  Organism, effect: S. epidermidis: S. epidermidis (H)
B. subtilis
  Organism MIC (μM): B. subtilis, 50 μM
S. epidermidis
  Organism MIC (μM): S. epidermidis, 50 μM
T. rubrum
  Organism MIC (μM): T. rubrum, 50 μM
Microorganisms [3]
  Activities: G B M

## MKRRRCNWCGKLFYLEEKSKEAYCCKECRKKAKKVKK [PF-307]
C. albicans
  Organism MIC (μM): C. albicans, 50 μM
Microorganisms [1]; [4]
  Target(s): S. epidermidis; also recorded: B. subtilis; also recorded: B. fragilis; also recorded: C. difficile
Microorganisms [2]; B. subtilis
  Organism, effect: B. subtilis: B. subtilis (H)
Microorganisms [2]; C. albicans
  Organism, effect: C. albicans: C. albicans (B)
Microorganisms [2]; S. epidermidis
  Organism, effect: S. epidermidis: S. epidermidis (T)
B. subtilis
  Organism MIC (μM): B. subtilis, 50 μM
T. rubrum
  Organism MIC (μM): T. rubrum, 50 μM
Microorganisms [3]
  Activities: G B M

## NYAVVSHT [PF-209]
MRSA
  Organism MIC (μM): MRSA, 50 μM
Microorganisms [1]; [4]
  Target(s): C. albicans; also recorded: C. jeikeium; also recorded: C. jejuni
Microorganisms [2]; MRSA
  Organism, effect: MRSA: MRSA (I)
Microorganisms [2]
  Organism, effect: P. aeruginosa: P. aeruginosa (H)
Microorganisms [2]; S. epidermidis
  Organism, effect: S. epidermidis: S. epidermidis (C)
Microorganisms [3]
  Activities: G B M

## RESKLIAMADMIRRRI-NH2 [PF-545]
MRSA
  Organism MIC (μM): MRSA, 50 μM
Microorganisms [1]; [4]
  Target(s): S. epidermidis; also recorded: E. coli; also recorded: P. aeruginosa; also recorded: S. pneumoniae; also recorded: E. faecalis; also recorded: C. jeikeium
A. niger
  Organism MIC (μM): A. niger, 50 μM
Microorganisms [2]; B. subtilis
  Organism, effect: B. subtilis (I)
Microorganisms [2]; C. albicans
  Organism, effect: C. albicans (B)
Microorganisms [2]; C. jeikeium
  Organism, effect: C. jeikeium (H)
Microorganisms [2]; E. faecalis
  Organism, effect: E. faecalis (H)
B. subtilis
  Organism MIC (μM): B. subtilis, 25 μM
Microorganisms [3]
  Activities: G B M

## RRGCTERLRRMARRNAWDLYAEHFY [PF-148]
A. niger
  Organism MIC (μM): A. niger, 50 μM
Microorganisms [2]; B. subtilis
  Organism, effect: B. subtilis: B. subtilis (I)
Microorganisms [2]; C. albicans
  Organism, effect: C. albicans: C. albicans (B)
Microorganisms [2]; C. jeikeium
  Organism, effect: C. jeikeium: C. jeikeium (H)
Microorganisms [2]
  Organism, effect: C. jejuni: C. jejuni (H)
  Organism, effect: M. luteus: M. luteus (A)
Microorganisms [2]; MRSA
  Organism, effect: MRSA: MRSA (C)
Microorganisms [2]; S. epidermidis
  Organism, effect: S. epidermidis: S. epidermidis (D)
Microorganisms [2]; S. pneumoniae
  Organism, effect: S. pneumoniae: S. pneumoniae (R)
B. subtilis
  Organism MIC (μM): B. subtilis, 50 μM
Microorganisms [3]
  Activities: G B M

## SKFKVLRKIIIKEYKGELMLSIQKQR [PF-530]
Microorganisms [2]; E. coli
  Organism, effect: E. coli (R)
Microorganisms [2]; E. faecalis
  Organism, effect: E. faecalis (C)
Microorganisms [2]; MRSA
  Organism, effect: MRSA (C)
Microorganisms [2]; S. epidermidis
  Organism, effect: S. epidermidis (H)
Microorganisms [2]; S. pneumoniae
  Organism, effect: S. pneumoniae (R)
Microorganisms [3]
  Activities: G M
A. baumannii
  Organism MIC (μM): A. baumannii, 25 μM

## SLQSQLGPCLHDQRH [PF-448]
Microorganisms [1]; [4]
  Target(s): S. epidermidis; also recorded: M. luteus; also recorded: P. mirabilis; also recorded: E. coli; also recorded: S. pneumoniae; also recorded: E. faecalis; also recorded: C. jeikeium; also recorded: C. jejuni
A. niger
  Organism MIC (μM): A. niger, 25 μM
Microorganisms [2]; S. pneumoniae
  Organism, effect: S. pneumoniae (I)
S. pneumoniae
  Organism MIC (μM): S. pneumoniae, 50 μM
Microorganisms [3]
  Activities: G B M

## VLPFPAIPLSRRRACVAAPRPRSRQRAS [PF-168]
MRSA
  Organism MIC (μM): MRSA, 50 μM
Microorganisms [1]; [4]
  Target(s): S. epidermidis and M. luteus and E. coli and C. albicans and MRSA and C. jeikeium and C. jejuni
A. niger
  Organism MIC (μM): A. niger, 50 μM
Microorganisms [2]; MRSA
  Organism, effect: MRSA: MRSA (I)
Microorganisms [2]
  Organism, effect: P. aeruginosa: P. aeruginosa (H)
T. rubrum
  Organism MIC (μM): T. rubrum, 50 μM
Microorganisms [3]
  Activities: G B M

## WSRVPGHSDTGWKVWHRW-NH2 [PF-547]
Microorganisms [1]; [4]
  Target(s): S. epidermidis and E. coli and P. aeruginosa and C. albicans and MRSA and S. pneumoniae and E. faecalis
Microorganisms [2]; B. subtilis
  Organism, effect: B. subtilis (I)
Microorganisms [2]; E. faecalis
  Organism, effect: E. faecalis (R)
Microorganisms [2]; MRSA
  Organism, effect: MRSA (M)
Microorganisms [2]; S. epidermidis
  Organism, effect: S. epidermidis (R)
B. subtilis
  Organism MIC (μM): B. subtilis, 25 μM
T. rubrum
  Organism MIC (μM): T. rubrum, 25 μM
Microorganisms [3]
  Activities: G B M
S. mutans
  Organism MIC (μM): S. mutans, 12.5 μM

Reference: patent US20110039763A1, “TARGETED ANTIMICROBIAL MOIETIES” (C3 JIAN, INC., priority 2009, published 2011)
